Results taken from ChEMBL document CHEMBL4813914, “Tackling Antimicrobial Resistance with Small Molecules Targeting LsrK: Challenges and Opportunities” (J Med Chem, 2020).

Assays:
[1] = Inhibition of Salmonella typhimurium LsrK expressed in Escherichia coli MET1158 in presence of DPD by kinase-glo max luminescent assay; parameters: species or system Salmonella enterica subsp. enterica serovar Typhimurium
[2] = Inhibition of LsrK expressed in Escherichia coli JW5503 harboring plasmid pET-Plsrlux assessed as reduction in autoinducer2-mediated quorum sensing activation by luminescence method
[3] = Inhibition of Salmonella typhimurium LsrK expressed in Escherichia coli MET1158 incubated for 30 mins followed by DPD and ATP addition and measured after 15 mins by kinase-glo max luminescent assay; parameters: species or system Salmonella enterica subsp. enterica serovar Typhimurium
[4] = Inhibition of LsrK expressed in Escherichia coli LW7 pLW11 harboring assessed as reduction in autoinducer2-mediated quorum sensing by measuring beta-galactosidase expression by luminescence method

Row | IC50 [1] [µM] | IC50 [2] [nM] | SMILES | also measured
1 | 292 |  | O=C(O)c1ccc(O)c2ncccc12 | 
2 | 141 |  | O=C(O)c1ccccc1Nc1ccc(Cl)cc1 | 
3 | 119 |  | O=C(O)c1ccccc1Nc1cccc(Cl)c1 | 
4 | 18 | 600 | O=C(O)C(=O)Nc1nc2ccc(NC(=O)c3cc(Br)c(Br)[nH]3)cc2s1 | 
5 | 30 |  | O=C(O)c1ccc(Cl)cc1Nc1ccccc1 | 
6 | 15 | 400 | O=C(O)CC(=O)Nc1ccc2nc(N(Cc3ccccc3)C(=O)c3cc(Br)c(Br)[nH]3)sc2c1 | 
7 | 18 | 10000 | O=C(O)C(=O)Nc1ccc2nc(N(Cc3ccccc3)C(=O)c3cc(Br)c(Br)[nH]3)sc2c1 | 
8 | 29 | 1000 | Cc1[nH]c(C(=O)N(Cc2ccccc2)c2nc3ccc(NC(=O)C(=O)O)cc3s2)c(Cl)c1Cl | 
9 | 12 |  | O=C(O)c1c(Cl)c(Cl)c(Cl)c(Cl)c1Nc1cc(Cl)c(Cl)c(Cl)c1Cl | 
10 | 78 | 17000 | O=C(Nc1ccc(C2=N[C@@H](C(=O)O)CO2)cc1)c1cc(Br)c(Br)[nH]1 | 
11 | 147 | 2000 | O=C(O)C(=O)N[C@H]1CCc2nc(NC(=O)c3cc(Br)c(Br)[nH]3)sc2C1 | 
12 | 67 |  | COc1ccc(Nc2cc(C(F)(F)F)ccc2Cl)c(C(=O)O)c1 | 
13 |  |  | O=C(O)C1=CC(=C(c2ccc(O)c(C(=O)O)c2)c2ccc(O)c(C(=O)O)c2)C=CC1=O [AURINTRICARBOXYLIC ACID] | IC50 [3]: 1000 nM
14 |  |  | O=C1C=CC(=C(c2ccc(O)cc2)c2ccc(O)cc2)C=C1 [AURIN] | IC50 [3]: 1000 nM; IC50 [4]: 14 µM
15 |  |  | CC1=C(O)C(=O)C=C2C1=CC=C1[C@@]2(C)CC[C@@]2(C)[C@@H]3C[C@](C)(C(=O)O)CC[C@]3(C)CC[C@]12C [CELASTROL] | IC50 [3]: 3000 nM
16 | 178 |  | Cc1ccc(Cl)c(Nc2ccccc2C(=O)O)c1Cl [MECLOFENAMIC ACID] | 
17 |  |  | COc1cc(C)c2c(c1C=O)Oc1c(c(C)c(O)c3c1C(O)OC3=O)OC2=O (stereo not given) [STICTIC ACID] | IC50 [3]: 3000 nM
18 | 70 |  | Cc1c(Cl)cccc1Nc1ccccc1C(=O)O [TOLFENAMIC ACID] | 
